In paper PMC5187517, “Pectocin M1 (PcaM1) Inhibits Escherichia coli Cell Growth and Peptidoglycan Biosynthesis through Periplasmic Expression” (Antibiotics, 2016):

Target: T1, pectocin M1 (PcaM1) (Pectobacterium carotovorum, UniProt C6DJ69)
T1 construct: gene PC1_2303; full-length, C-terminal Arg-Ser-His6 tag kept, initiator Met lost; expressed in E. coli C43(DE3) from pMLD365; monomer; theoretical mass 30,401 Da with tag (observed m/z 30,266); plant-like ferredoxin domain plus cytotoxic domain
T1 sequence (C6DJ69 2-268): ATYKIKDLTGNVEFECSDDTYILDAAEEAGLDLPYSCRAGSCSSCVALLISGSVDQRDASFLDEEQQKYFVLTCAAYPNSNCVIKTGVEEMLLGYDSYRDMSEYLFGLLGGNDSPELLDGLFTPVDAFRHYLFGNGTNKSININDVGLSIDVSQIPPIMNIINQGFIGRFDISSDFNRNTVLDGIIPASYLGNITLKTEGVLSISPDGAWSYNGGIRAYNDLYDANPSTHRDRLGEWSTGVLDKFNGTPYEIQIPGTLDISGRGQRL
Test: radiolabelled lipid II hydrolysis, TLC with radioactivity scanner
Assay type: biochemical
Details: labelled compound ([14C] in GlcNAc moiety); 100 mM Tris-HCl pH 7.5, 20 mM MgCl2, 150 mM NaCl, 10 mM 2-mercaptoethanol, 0.2% DDM, 37 °C, lipid II 6–100 µM

Question: How did the Km turn out when `CC(=O)N[C@H]1[C@H](O[C@H]2[C@H](O[C@H](C)C(=O)N[C@@H](C)C(=O)N[C@H](CCC(=O)N[C@@H](CCC[C@@H](N)C(=O)O)C(=O)N[C@H](C)C(=O)N[C@H](C)C(=O)O)C(=O)O)[C@@H](NC(C)=O)[C@@H](OP(=O)(O)OP(=O)(O)OC/C=C(/C)CC/C=C(/C)CC/C=C(/C)CC/C=C(/C)CC/C=C(/C)CC/C=C(/C)CC/C=C(/C)CC/C=C(/C)CC/C=C(\C)CC/C=C(\C)CCC=C(C)C)O[C@@H]2CO)O[C@H](CO)[C@@H](O)[C@@H]1O` [lipid II, C55-PP-MurNAc(L-Ala-γ-D-Glu-meso-A2pm-D-Ala-D-Ala)-GlcNAc] was run?
Answer: 55 µM
